Tested on: MCF-7
Assay: AlamarBlue cell viability assay, MCF7
Assay type: cell-based, human
Conditions: Homo sapiens, MCF7, MCF-7, AlamarBlue cell viability (Table 8)
From the text: (A) Inhibitory concentration 50% (IC50) values for compound 43 in the MC cell lines are tabulated, using an AlamarBlue™ cell viability assay as previously described in Pandey V et al., Breast Cancer Res. 2014; 16(5):429. (B) Measured dose-dependent manner effect of compound 43 on the viability of MC cells (left-side, TFF3-high and right, TFF3-low) using AlamarBlue™ viability assay as previously described (ibid). (C) Apoptotic cell death of mammary carcinoma cell lines measured after treatment with 10 μM compound 43 using flow cytometry analysis at 24 hour as described previously in Keerthy H K et al., PloS one. 2014; 9(9):e107118. Annexin V-FITC staining is indicated on the X-axis and PI staining on the Y-axis. […] Acquisition of Annexin V and PI data were represented as percentage (%) in each quadrant. Note: CM, conditioned media; MCF10A and MCF12A, non-transformed immortalized-mammary epithelial cell line. Points are mean of triplicate experiments; bars, ±SD. Statistical significance was assessed by using an unpaired two-tailed Student's t test (P<0.05 was considered as significant) using GraphPad Prism5. Columns are mean of triplicate experiments; bars, ±SD. **P<0.001, *P<0.05.
The human immortalized mammary epithelial cell lines, MCF10A, and MCF12A; and immortalized hepatocellular epithelial cell line, LO2 were obtained from the American Type Culture Collection (ATCC, Rockville, Md.) and were cultured as per ATCC propagation instructions. MC cell lines, MCF7, T47D, BT474, BT20, MDA-MB-361, MDA-MB-436, MDA-MB-468, and MDA-MB-231; endometrial carcinoma cell lines, Ishikawa, ECC1, RL95-2 and AN3; hepatocellular carcinoma cell lines, Hep3B, H2P, and H2M; colon carcinoma cell lines, DLD-1, and Caco-2; and prostate carcinoma cell lines, PC3, LNCaP, and DU145 were obtained from the American Type Culture Collection (ATCC, Rockville, Md.). Pancreatic carcinoma cell lines, AsPC-1 and BxPC-3; Lung carcinoma cell lines, HCC-827, NCI-H1975, HCC-4006, PC-14, and NCI-H1299; and Thyroid carcinoma cell lines HTH83, CAL62, T238, and OGK-M were obtained from Prof. H. Phillip Koeffler's laboratory at The Cancer Science Institute of Singapore, National University of Singapore (NUS). Gastric carcinoma cell lines, AGS, MKN-28, MKN-45, and A2-528 were obtained from Prof. Yoshiaki Ito's laboratory at The Cancer Science Institute of Singapore, NUS. All cell lines were cultured as per ATCC propagation instructions.
The above synthesised compounds were initially evaluated against a range of carcinoma cells using an AlamarBlue™ cell viability assay (using the protocol discussed above). The tested compounds were generally efficacious at reducing the viability of various carcinoma cells compared to vehicle (DMSO) treated cells. Table 8 provides selected IC50 data for certain of the compounds synthesised herein against MCF-7.
In table 9 IC50 values of compound 43 compound library in several cancer cell lines are tabulated, using an AlamarBlue® cell viability assay as previously described in Pandey V et al., Breast Cancer Res. 2014; 16(5):429. Statistical analysis was assessed by using GraphPad Prism5. Note: NV, no value.

N#CC1=C(N)Oc2c(c(=O)oc3ccccc23)C1c1ccc(-c2cn[nH]c2)cc1 (stereo not drawn) [Compound 129]
IC50: 263 µM

Cc1ccccc1-c1ccc(C2C(C#N)=C(N)Oc3c2c(=O)oc2ccccc32)c(F)c1 (stereo not drawn) [Compound 138]
IC50: 0.751 µM

Cc1cc(-c2ccc(C3C(C#N)=C(N)Oc4c3c(=O)oc3ccccc43)cc2)cnc1Cl (stereo not drawn) [Compound 122]
IC50: 73.9 µM

Cc1cc(-c2ccc(C3C(C#N)=C(NC(=O)Cc4cccc(Cl)c4)Oc4c3c(=O)oc3ccccc43)cc2)cnc1F (stereo not drawn) [Compound 98]
IC50: 58.3 µM

N#CC1=C(N)Oc2c(c(=O)oc3ccccc23)C1c1ccc(-c2cncnc2)cc1F (stereo not drawn) [Compound 139]
IC50: 4.23 µM

COc1ccc(C2C(C#N)=C(NC(=O)Cc3cccc(Cl)c3)Oc3c2c(=O)oc2ccccc32)cc1-c1cnc(F)c(C)c1 (stereo not drawn) [Compound 103]
IC50: 40 µM

COc1ccc2c3c(c(=O)oc2c1)C(c1ccc(-c2ccnc(F)c2C)cc1)C(C#N)=C(N)O3 (stereo not drawn) [Compound 150]
IC50: 1.12 µM

N#CC1=C(N)Oc2c(c(=O)oc3ccccc23)C1c1ccc(-c2cccc3ccccc23)cc1 (stereo not drawn) [Compound 125]
IC50: 8.23 µM

N#CC1=C(N)Oc2c(c(=O)oc3ccccc23)C1c1ccc(-c2ccc(Cl)c(C(F)(F)F)c2)cc1 (stereo not drawn) [Compound 25]
IC50: 18.4 µM

Cc1cc(-c2ccc(C3C(C#N)=C(N)Oc4c3c(=O)oc3ccccc43)c(F)c2)cnc1Cl (stereo not drawn) [Compound 132]
IC50: 1.21 µM

N#CC1=C(N)Oc2c(c(=O)oc3ccc(F)cc23)C1c1ccc(-c2ccncc2)cc1 (stereo not drawn) [Compound 145]
IC50: 2.81 µM

COc1ccc(C2C(c3nnn[nH]3)=C(N)Oc3c2c(=O)oc2ccccc32)cc1-c1cnc(F)c(C)c1 (stereo not drawn) [Compound 114]
IC50: 39.8 µM

— patent US20200147039A1, “COMPOUNDS USEFUL IN INHIBITING HUMAN TREFOIL FACTOR 3” (NATIONAL UNIVERSITY OF SINGAPORE, priority 2017, published 2020)
